Data as given in article PMC13070491, “Single-nucleus transcriptomics, pharmacokinetics, and pharmacodynamics of CDK4/6 and mTOR inhibition in a Phase 0/1 trial of recurrent high-grade glioma” (Neuro-Oncology, 2025).
Values joined by “and” are separate entries in the source; they are usually repeats but may differ in a detail not shown here. Identical values can stand only once. Like-named read-outs stand apart in the source and are kept apart here.

Assays:
[1] = test system: pS6 ribosomal protein; test: IHC of tumor tissue, pS6 ribosomal protein positive cells; format: in vivo, human; details: 5 days ribociclib + everolimus; paired t-test P > .05
Protocol: Everolimus pharmacodynamic biomarkers were assessed using IHC with the following antibodies: anti-p4EBP1 (Cell Signaling Technology; #2855, 1:500); anti-pS6 ribosomal protein (Cell Signaling -Technology; #4858, 1:100). IHC staining was performed using the BOND RX automated system (Leica Biosystems) as previously described.[8] Stained slides were imaged on a Leica Versa microscope and analyzed with Aperio Image software. Percentage of stain-positive cells was quantified from at least 6 randomly selected regions of interest within the tumor as assessed by a board-certified neuropathologist.

[2] = 900 mg QD 5 days monotherapy; ref Tien A, Clin Cancer Res 2019; cited from earlier work
[3] = CNS penetration: total and unbound drug concentrations in tumor regions, CSF and plasma (LC-MS/MS, equilibrium dialysis); details: for Ribociclib.CSF / Ribociclib.Non-enhancing.tumor / Ribociclib.Plasma.conc / Ribociclib.Unbound.CSF / Ribociclib.Unbound.enhancing: per patient; for Kp at 120 h / Kp uu at 120 h / concentration at 5 days: human;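 for all read-outs here: drug levels in patient tumor tissue from contrast-enhancing and non-enhancing regions sampled under MRI-guided neuronavigation, with plasma and CSF drawn during surgical resection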
[4] = Level 0: Ribociclib 400mg QD + Everolimus 2.5mg QD, sampling 1-3 Hours
[5] = Level 0: Ribociclib 400mg QD + Everolimus 2.5mg QD, sampling 23-25 Hours
[6] = Level 1: Ribociclib 600mg QD + Everolimus 2.5mg QD, sampling 1-3 Hours
[7] = Level 1: Ribociclib 600mg QD + Everolimus 2.5mg QD, sampling 7-9 Hours
[8] = Level 2: Ribociclib 600mg QD + Everolimus 5mg QD, sampling 7-9 Hours
[9] = Level 3: Ribociclib 600mg QD + Everolimus 10mg QD, sampling 7-9 Hours
[10] = Level 4: Ribociclib 600mg QD + Everolimus 50mg once on Day 5, sampling 7-9 Hours
[11] = Level 5: Ribociclib 600mg QD + Everolimus 60mg once on Day 5, sampling 7-9 Hours
[12] = Level 6: Ribociclib 600mg QD + Everolimus 70mg once on Day 5, sampling 7-9 Hours
[13] = enhancing tumor / plasma, oral, 400 mg
[14] = enhancing tumor / plasma, oral, 600 mg
[15] = non-enhancing tumor / plasma, oral, 400 mg
[16] = non-enhancing tumor / plasma, oral, 600 mg

CN(C)C(=O)c1cc2cnc(Nc3ccc(N4CCNCC4)cn3)nc2n1C1CCCC1 [Ribociclib, ribociclib]
mTOR pathway activity as quantified by pS6, surgical specimen vs archival tissue [1]: elevated but not significantly different
Total Ribociclib concentration, CSF, Maximum [2]: 838 nM
Total Ribociclib concentration, CSF, Median [2]: 267 nM
Total Ribociclib concentration, CSF, Minimum [2]: 43 nM
Total Ribociclib concentration, Enhancing tumor, Maximum [2]: 71.76 µM
Total Ribociclib concentration, Enhancing tumor, Median [2]: 29.252 µM
Total Ribociclib concentration, Enhancing tumor, Minimum [2]: 6.586 µM
Total Ribociclib concentration, Non-enhancing tumor, Maximum [2]: 31.424 µM
Total Ribociclib concentration, Non-enhancing tumor, Median [2]: 12.176 µM
Total Ribociclib concentration, Non-enhancing tumor, Minimum [2]: 452 nM
Unbound Ribociclib concentration, CSF, Maximum [2]: 645 nM
Unbound Ribociclib concentration, CSF, Median [2]: 152 nM
Unbound Ribociclib concentration, CSF, Minimum [2]: 18 nM
Unbound Ribociclib concentration, Enhancing tumor, Maximum [2]: 4.743 µM
Unbound Ribociclib concentration, Enhancing tumor, Median [2]: 1644 nM
Unbound Ribociclib concentration, Enhancing tumor, Minimum [2]: 307 nM
Unbound Ribociclib concentration, Non-enhancing tumor, Maximum [2]: 1295 nM
Unbound Ribociclib concentration, Non-enhancing tumor, Median [2]: 482 nM
Total Ribociclib concentration, CSF, Minimum ([3]; 400 mg QD 5 days): 36 nM
Total Ribociclib concentration, CSF, Maximum ([3]; 600 mg QD 5 days): 714 nM
Total Ribociclib concentration, CSF, Median ([3]; 600 mg QD 5 days): 276 nM
Total Ribociclib concentration, CSF, Minimum ([3]; 600 mg QD 5 days): 54 nM
Ribociclib.CSF [3, 4]: 0.0707
Ribociclib.Non-enhancing.tumor [3, 4]: 6.684
Ribociclib.Plasma.conc [3, 4]: 2.09 and 0.31
Ribociclib.Unbound.CSF [3, 4]: 0.2008 and 0.0206
Ribociclib.Unbound.enhancing [3, 4]: 1.4 and 0.419
Ribociclib.CSF [3, 5]: 0.1931
Ribociclib.Non-enhancing.tumor [3, 5]: 3.834
Ribociclib.Plasma.conc [3, 5]: 0.402 and 0.1417
Ribociclib.Unbound.CSF [3, 5]: 0.0928
Ribociclib.Unbound.enhancing [3, 5]: 0.92 and 0.1576
Ribociclib.CSF [3, 6]: 0.0543
Ribociclib.Non-enhancing.tumor [3, 6]: 7.2608
Ribociclib.Plasma.conc [3, 6]: 0.1944
Ribociclib.Unbound.CSF [3, 6]: 0.0207
Ribociclib.Unbound.enhancing [3, 6]: 0.4205
Ribociclib.CSF [3, 7]: 0.4701 and 0.7139
Ribociclib.Non-enhancing.tumor [3, 7]: 30.0728 and 22.3048
Ribociclib.Plasma.conc [3, 7]: 3.4168 and 1.3485
Ribociclib.Unbound.CSF [3, 7]: 0.2858 and 0.3152
Ribociclib.Unbound.enhancing [3, 7]: 4.5 and 3.49
Ribociclib.CSF [3, 8]: 0.1529 and 0.1758
Ribociclib.Non-enhancing.tumor [3, 8]: 8.1928 and 11.9076 and 16.496
Ribociclib.Plasma.conc [3, 8]: 1.151 and 0.8853 and 1.3745
Ribociclib.Unbound.CSF [3, 8]: 0.1531 and 0.1613
Ribociclib.Unbound.enhancing [3, 8]: 1.0167 and 1.1852 and 2.1093
Ribociclib.CSF [3, 9]: 0.2760 and 0.5558 and 0.3667
Ribociclib.Non-enhancing.tumor [3, 9]: 19.9804 and 11.7316 and 41.6376
Ribociclib.Plasma.conc [3, 9]: 1.0816 and 1.6009
Ribociclib.Unbound.CSF [3, 9]: 0.3027
Ribociclib.Unbound.enhancing [3, 9]: 1.1229 and 3.39 and 0.0047
Ribociclib.CSF [3, 10]: 0.1707 and 0.4561
Ribociclib.Non-enhancing.tumor [3, 10]: 4.2684 and 4.8112
Ribociclib.Plasma.conc [3, 10]: 0.7506 and 1.3586 and 0.9058
Ribociclib.Unbound.CSF [3, 10]: 0.1543 and 0.2120 and 0.3373
Ribociclib.Unbound.enhancing [3, 10]: 0.6494 and 0.9352 and 3.453
Ribociclib.CSF [3, 11]: 0.0807 and 0.3122 and 0.4398
Ribociclib.Non-enhancing.tumor [3, 11]: 12.238 and 4.126
Ribociclib.Plasma.conc [3, 11]: 1.163 and 1.8703 and 1.3349
Ribociclib.Unbound.CSF [3, 11]: 0.0799 and 0.2965
Ribociclib.Unbound.enhancing [3, 11]: 1.348 and 0.6511 and 0.2648
Ribociclib.CSF [3, 12]: 0.5436 and 0.0672 and 0.1419
Ribociclib.Non-enhancing.tumor [3, 12]: 17.8508 and 1.3144 and 1.5982
Ribociclib.Plasma.conc [3, 12]: 1.4899 and 0.302 and 1.3235
Ribociclib.Unbound.CSF [3, 12]: 0.1898 and 0.0709 and 0.0882
Ribociclib.Unbound.enhancing [3, 12]: 1.0559 and 0.5673 and 0.5436
Kp at 120 h ([3]; CSF / plasma, oral, 400 mg): 0.25
Kp uu at 120 h ([3]; CSF / plasma, oral, 400 mg): 1.15
Kp at 120 h ([3]; CSF / plasma, oral, 600 mg): 0.22
Kp uu at 120 h ([3]; CSF / plasma, oral, 600 mg): 0.84
concentration at 5 days ([3]; CSF, oral, Total Ribociclib concentration, Maximum, 400 mg QD 5 days): 216 nM
concentration at 5 days ([3]; CSF, oral, Total Ribociclib concentration, Median, 400 mg QD 5 days): 137 nM
concentration at 5 days ([3]; CSF, oral, Unbound Ribociclib concentration, Maximum, 400 mg QD 5 days): 201 nM
concentration at 5 days ([3]; CSF, oral, Unbound Ribociclib concentration, Maximum, 600 mg QD 5 days): 337 nM
concentration at 5 days ([3]; CSF, oral, Unbound Ribociclib concentration, Median, 400 mg QD 5 days): 82 nM
concentration at 5 days ([3]; CSF, oral, Unbound Ribociclib concentration, Median, 600 mg QD 5 days): 212 nM
concentration at 5 days ([3]; CSF, oral, Unbound Ribociclib concentration, Minimum, 400 mg QD 5 days): 21 nM
concentration at 5 days ([3]; CSF, oral, Unbound Ribociclib concentration, Minimum, 600 mg QD 5 days): 21 nM
Kp at 120 h [3, 13]: 12.9
Kp uu at 120 h [3, 13]: 5.1
Kp at 120 h [3, 14]: 14.1
Kp uu at 120 h [3, 14]: 5.67
concentration at 5 days ([3]; enhancing tumor, oral, Total Ribociclib concentration, Maximum, 400 mg QD 5 days): 9900 nM
concentration at 5 days ([3]; enhancing tumor, oral, Total Ribociclib concentration, Maximum, 600 mg QD 5 days): 49400 nM
concentration at 5 days ([3]; enhancing tumor, oral, Total Ribociclib concentration, Median, 400 mg QD 5 days): 4060 nM
concentration at 5 days ([3]; enhancing tumor, oral, Total Ribociclib concentration, Median, 600 mg QD 5 days): 14800 nM
concentration at 5 days ([3]; enhancing tumor, oral, Total Ribociclib concentration, Minimum, 400 mg QD 5 days): 2330 nM
concentration at 5 days ([3]; enhancing tumor, oral, Total Ribociclib concentration, Minimum, 600 mg QD 5 days): 753 nM
concentration at 5 days ([3]; enhancing tumor, oral, Unbound Ribociclib concentration, Maximum, 400 mg QD 5 days): 1400 nM
concentration at 5 days ([3]; enhancing tumor, oral, Unbound Ribociclib concentration, Maximum, 600 mg QD 5 days): 4500 nM
concentration at 5 days ([3]; enhancing tumor, oral, Unbound Ribociclib concentration, Median, 400 mg QD 5 days): 375 nM
concentration at 5 days ([3]; enhancing tumor, oral, Unbound Ribociclib concentration, Median, 600 mg QD 5 days): 1040 nM
concentration at 5 days ([3]; enhancing tumor, oral, Unbound Ribociclib concentration, Minimum, 400 mg QD 5 days): 158 nM
concentration at 5 days ([3]; enhancing tumor, oral, Unbound Ribociclib concentration, Minimum, 600 mg QD 5 days): 4.7 nM
Kp at 120 h [3, 15]: 8.35
Kp uu at 120 h [3, 15]: 3.19
Kp at 120 h [3, 16]: 8.8
Kp uu at 120 h [3, 16]: 3.78
concentration at 5 days ([3]; non-enhancing tumor, oral, Total Ribociclib concentration, Maximum, 400 mg QD 5 days): 15000 nM
concentration at 5 days ([3]; non-enhancing tumor, oral, Total Ribociclib concentration, Maximum, 600 mg QD 5 days): 41600 nM
concentration at 5 days ([3]; non-enhancing tumor, oral, Total Ribociclib concentration, Median, 400 mg QD 5 days): 3130 nM
concentration at 5 days ([3]; non-enhancing tumor, oral, Total Ribociclib concentration, Median, 600 mg QD 5 days): 11700 nM
concentration at 5 days ([3]; non-enhancing tumor, oral, Total Ribociclib concentration, Minimum, 400 mg QD 5 days): 1370 nM
concentration at 5 days ([3]; non-enhancing tumor, oral, Total Ribociclib concentration, Minimum, 600 mg QD 5 days): 1310 nM
concentration at 5 days ([3]; non-enhancing tumor, oral, Unbound Ribociclib concentration, Maximum, 400 mg QD 5 days): 1770 nM
concentration at 5 days ([3]; non-enhancing tumor, oral, Unbound Ribociclib concentration, Maximum, 600 mg QD 5 days): 2340 nM
concentration at 5 days ([3]; non-enhancing tumor, oral, Unbound Ribociclib concentration, Median, 400 mg QD 5 days): 170 nM
concentration at 5 days ([3]; non-enhancing tumor, oral, Unbound Ribociclib concentration, Median, 600 mg QD 5 days): 693 nM
concentration at 5 days ([3]; non-enhancing tumor, oral, Unbound Ribociclib concentration, Minimum, 400 mg QD 5 days): 65 nM
concentration at 5 days ([3]; non-enhancing tumor, oral, Unbound Ribociclib concentration, Minimum, 600 mg QD 5 days): 68 nM
concentration at 5 days ([3]; non-enhancing tumor, po, unbound drug concentration in the non-enhancing tumor regions, range, ribociclib 400 mg daily oral, 5 days): 65 to 1770 nM
concentration at 5 days ([3]; non-enhancing tumor, po, unbound drug concentration in the non-enhancing tumor regions, range, ribociclib 600 mg daily oral, 5 days): 68 to 2340 nM
